Laboratory results: US20140363835A1, “COMPATIBLE SOLUTE ECTOINE AS WELL AS DERIVATIVES THEREOF FOR ENZYME STABILIZATION” (Roche Diagnostics Operations, Inc., priority 2012, published 2014)
“Also recorded” adds a separate entry of the source.

How the values were obtained:
[1] = tested on: Glucose dehydrogenase Mut. 2; assay: Enzymatic activity of glucose dehydrogenase mutant 2 in solution after storage; assay type: biochemical; conditions: for stabilizing effect in solution: 1-4% (w/v) stabilizer in solution, storage at 4, 35 or 45° C.; for Enzymatic Activity: in solution
Description: Aliquots of a solution including a glucose dehydrogenase mutant 2 as disclosed in WO Patent Application Publication No. 2011/020856 was combined with different amounts of ectoine or hydroxyectoine as indicated below in Table 4.
The aliquots were stored under different storage conditions (8 days, 4° C.; 8 days 35° C., 4 days 4° C. followed by 4 days 45° C.), and the enzymatic activity was determined after the storage.

[2] = tested on: glucose dehydrogenase and diaphorase; assay: Blood glucose measurement with stored test elements as indicator for enzymatic activity; assay type: biochemical, B. subtilis; conditions: 1 g/100 g composition; stored 63 days at 4, 24, 35 and 45° C.; normalized to 4° C.
Description: Test elements were stored in plastic vials in the presence of a drying agent for 63 days at 4° C. (KS), 24° C. (RT), 35° C. (DT) and 45° C. (HT). Test elements were used to determine blood glucose levels in a plurality of venous blood samples. The samples were measured with a reference method (Hitachi) in parallel. Results were normalized with respect to the KS stored test elements.

[3] = target: Gluc-DOR (a PQQ-dependent GDH) (Acinetobacter calcoaceticus, UniProt P13650); assay: Enzymatic activity in test elements including Gluc-DOR; assay type: biochemical; conditions: dry test element; after 3 weeks at 45° C.
Chain of Gluc-DOR (a PQQ-dependent GDH) (P13650 25-478): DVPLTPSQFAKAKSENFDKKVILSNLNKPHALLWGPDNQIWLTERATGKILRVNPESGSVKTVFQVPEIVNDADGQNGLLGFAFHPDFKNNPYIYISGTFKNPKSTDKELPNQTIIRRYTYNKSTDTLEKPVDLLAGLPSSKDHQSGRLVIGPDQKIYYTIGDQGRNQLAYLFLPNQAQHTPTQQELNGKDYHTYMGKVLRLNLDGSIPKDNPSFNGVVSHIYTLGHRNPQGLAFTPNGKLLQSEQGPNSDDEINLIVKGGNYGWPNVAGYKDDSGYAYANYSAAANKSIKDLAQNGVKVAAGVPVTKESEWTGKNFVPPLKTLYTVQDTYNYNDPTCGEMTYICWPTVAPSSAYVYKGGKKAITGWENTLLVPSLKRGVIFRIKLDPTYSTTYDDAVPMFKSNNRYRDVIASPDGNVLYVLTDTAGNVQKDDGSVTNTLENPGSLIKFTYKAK
Description: (§1) A test element with Gluc-DOR and a mutant thereof (Gluc-DOR 31) was generated as described above in Example 1. The test element was analyzed as described above in Example 2. The determination of the enzymatic activity was carried out using nitrosoaniline as described in EP Patent No. 0 620 283.

[4] = tested on: Gluc-DOR 31 mutant; assay: Enzymatic activity in test elements including Gluc-DOR 31 mutant; assay type: biochemical; conditions: dry test element; after 3 weeks at 45° C.
Description: as §1

[5] = tested on: diaphorase from B. subtilis; assay: Enzymatic activity in eluted test elements after dry storage (diaphorase); assay type: biochemical; conditions: test elements stored dry 6 weeks at 45° C.
Description: (§2) Four different reaction films for determining glucose levels were generated and coated on a foil essentially as described in EP Patent No. 0 821 234. The formulation of the first coat/film layer composition is shown below in Table 1.
(§3) The pH was adjusted to 6.8, and the composition was coated as a first film (about 120 μm) on a polycarbonate foil (125 μm). The coated composition was subsequently dried at 50° C.
(§4) The pH was adjusted to 6.8, and the composition was coated as a second film (about 25 μm) onto the first film coated on the foil. The coated composition was subsequently dried at 50° C. Test strips for glucose determination were generated as described in EP Patent No. 0 821 234.
(§5) Test elements were stored in plastic vials in the presence of a drying agent for 6 weeks at 45° C. In a subsequent step, the test field of a test element was eluted by ultra-sonication using elution buffer. Enzymatic activity was determined in the supernatant.

[6] = tested on: glucose dehydrogenase and diaphorase; assay: Enzymatic activity in test elements with different buffers; assay type: biochemical, B. subtilis; conditions: 2 g ectoine per 100 g first coating film; phosphate-buffer pH 6.8 or HEPES pH 7.1; 45 days, 45° C. to 4° C.
Excerpt: Test elements were stored and treated essentially as described in Example 3. Different buffers, namely a phosphate-buffer pH 6.8, without stabilizer, a phosphate-buffer pH 6.8, 2 g ectoine per 100 g first coating film, a HEPES buffer pH 7.1, without stabilizer, and a HEPES buffer pH 7.1, 2 g ectoine per 100 g first coating film, were used in the coating compositions as indicated in FIG. 4.

[7] = target: glucose oxidase (Aspergillus niger, UniProt P13006); conditions: test elements for electrochemically determining glucose; WO 2007/097653, Loose (2006); cited from earlier work
Chain of glucose oxidase (P13006 17-605, species assumed): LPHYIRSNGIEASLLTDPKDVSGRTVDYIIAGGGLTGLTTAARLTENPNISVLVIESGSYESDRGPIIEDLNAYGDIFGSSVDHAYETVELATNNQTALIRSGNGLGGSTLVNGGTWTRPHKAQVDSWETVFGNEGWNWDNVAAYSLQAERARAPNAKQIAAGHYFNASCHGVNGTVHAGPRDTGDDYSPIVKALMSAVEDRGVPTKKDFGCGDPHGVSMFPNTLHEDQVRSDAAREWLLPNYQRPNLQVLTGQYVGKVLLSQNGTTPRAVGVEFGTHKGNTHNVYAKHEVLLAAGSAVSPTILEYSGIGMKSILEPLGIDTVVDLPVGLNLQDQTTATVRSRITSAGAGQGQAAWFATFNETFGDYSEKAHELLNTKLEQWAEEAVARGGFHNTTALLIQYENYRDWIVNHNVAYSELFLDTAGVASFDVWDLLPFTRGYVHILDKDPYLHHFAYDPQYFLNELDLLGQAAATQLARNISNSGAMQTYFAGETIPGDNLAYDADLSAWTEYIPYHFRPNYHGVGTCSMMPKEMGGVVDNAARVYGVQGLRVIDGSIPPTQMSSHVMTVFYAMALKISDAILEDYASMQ

[8] = target: GDH from B. subtilis (Bacillus subtilis, UniProt P12310); assay: Enzymatic activity in eluted test elements after dry storage (GDH); assay type: biochemical; conditions: concentrations larger than 0.3 g/100 g coating composition; test elements stored dry 6 weeks at 45° C.
Chain of GDH from B. subtilis (P12310 whole entry): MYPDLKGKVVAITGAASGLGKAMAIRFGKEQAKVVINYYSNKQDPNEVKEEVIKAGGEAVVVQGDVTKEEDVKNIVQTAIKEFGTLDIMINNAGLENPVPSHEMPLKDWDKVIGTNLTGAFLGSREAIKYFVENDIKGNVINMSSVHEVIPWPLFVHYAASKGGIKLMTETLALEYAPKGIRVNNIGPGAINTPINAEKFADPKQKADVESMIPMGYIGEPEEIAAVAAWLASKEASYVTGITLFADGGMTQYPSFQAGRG
Description: as §2, §3, §4, §5

[9] = tested on: lactate dehydrogenase; conditions: in solution; Andersson et al. (2000); cited from earlier work
[10] = stabilizer about 1%, 4 days at 4° C., 4 days at 45° C.
[11] = stabilizer about 1%, 8 days at 4° C.
[12] = stabilizer about 1%, 8 days at 35° C.
[13] = stabilizer about 2%, 4 days at 4° C., 4 days at 45° C.
[14] = stabilizer about 2%, 8 days at 4° C.
[15] = stabilizer about 2%, 8 days at 35° C.
[16] = stabilizer about 4%, 4 days at 4° C., 4 days at 45° C.
[17] = stabilizer about 4%, 8 days at 4° C.
[18] = stabilizer about 4%, 8 days at 35° C.

SMILES	stabilizing effect in solution [1]	Enzymatic Activity [1, 10]	Enzymatic Activity [1, 11]	Enzymatic Activity [1, 12]	Enzymatic Activity [1, 13]	Enzymatic Activity [1, 14]	Enzymatic Activity [1, 15]	Enzymatic Activity [1, 16]	Enzymatic Activity [1, 17]	Enzymatic Activity [1, 18]	preservation of enzymatic activities (measured glucose level) [2]	stabilizing effect on Gluc-DOR [3]	stabilizing effect on Gluc-DOR 31 mutant [4]	stabilization of diaphorase [5]	stabilizing activity with different buffers [6]	stabilization of glucose oxidase [7]	stabilizing effect (activity versus test elements without stabilizer) [8]	prevention of protein aggregation [9]
CC1=NCC[C@@H](C(=O)O)N1 [ectoine, (S)-2-methyl-3,4,5,6-tetrahydropyrimidine-4-carboxylic acid]	No stabilizing effect; also recorded: not observed	60 kU/g	222 kU/g	144 kU/g	59 kU/g	222 kU/g	149 kU/g	57 kU/g	207 kU/g	137 kU/g	act as stabilizers	stabilizing effect	stabilizing effect	stabilized	observed independent of the buffer system	Stabilization	more than 10%	–
CC1=NC[C@H](O)[C@@H](C(=O)O)N1 [hydroxyectoine]	No stabilizing effect	52 kU/g	208 kU/g	122 kU/g	60 kU/g	221 kU/g	141 kU/g	56 kU/g	207 kU/g	131 kU/g	act as stabilizers	–	–	stabilized	–	Stabilization	same effect	incapable of preventing protein aggregation
